# *1 amine or outer side, *2 acyl side, *3 side chain or, on linkers, in order; H or OH if unused. Where a SMILES comes first, the peptide text is derived from it. Bridges are numbered along the chain shown (N, C = ends). [ ]: non-standard residue; d: D form. The star is where a group is joined. hPhe(3-Cl-4-CF3) = N[C@@H](CCc1ccc(C(F)(F)F)c(Cl)c1)C(=O)O; X1 = CCCCN([C@@H](Cc1ccc(C)cc1)C(=O)[*:2])[*:1]; NEtPhe(4-Me) = CCN[C@@H](Cc1ccc(C)cc1)C(=O)O; NMeGly(cPent) = CN[C@H](C(=O)O)C1CCCC1; NMeD = CN[C@@H](CC(=O)O)C(=O)O; NMeL = CN[C@@H](CC(C)C)C(=O)O; NMeV = CN[C@H](C(=O)O)C(C)C; Morpholide = C1CN(*)CCO1; NMeA = CN[C@@H](C)C(=O)O; Ac5c = NC1(C(=O)O)CCCC1; Aze = O=C(O)[C@@H]1CCN1; Sar = CNCC(=O)O
# Legend:
# [1] = biological target: GDP-bound KRAS wild-type protein (Homo sapiens, UniProt P01116); assay: Binding to KRAS by surface plasmon resonance (SPR), dissociation constant KD
# Method: Surface plasmon resonance was used to analyze the binding affinity of compounds for KRAS, NRAS, and HRAS. The apparatus used was Biacore 8K, 8K+, or T200 (GE Healthcare), and the running buffer used was HBS (10 mM HEPES-NaOH, 150 mM NaCl, pH 7.4) containing 1 mM DTT, 10 mM MgCl2, 0.01% Tween 20, 10 µM GDP, and 4% DMSO.
# Biotinylated Avi-tag fusion KRAS, NRAS, and HRAS proteins were expressed in E. coli BL21 (DE3) strains, and after cells were homogenized, they were purified using Streptavidin Mutein Matrix and Superdex 75. After purification, GDP-loaded KRAS, NRAS, and HRAS proteins were immobilized on the surface of Sensor Chip CAP (Cytiva) coated with Biotin CAPture Reagent in an immobilization amount of about 100 to 300 RU. Binding of each compound was evaluated by the Single Cycle Kinetics method, and a running buffer or a compound solution was added to the RAS protein non-immobilized surface and the immobilized surface to obtain a binding response. The flow rate was set to 100 µL/min, and in the compound-adding cycle, compound solutions having different concentrations were intermittently added for 75 seconds each, starting from a low concentration. […] In the blank cycle, a running buffer was intermittently added and not the compound solution. The Biotin CAPture Reagent and RAS proteins were immobilized for each cycle, and at the end of each cycle, the sensor chip was regenerated by the regeneration solution appended to the Biotin CAPture Kit (Cytiva). Measurement was carried out at 30°C.
# The resulting sensorgram was subjected to curve fitting based on a 1:1 binding model on Biacore Insight Evaluation Software or T200 Evaluation Software, and thereby the dissociation constant KD of each compound with respect to KRAS, NRAS, and HRAS was determined. […] Blank indicates a compound from which the KD value with respect to NRAS or HRAS was not obtained.
# [2] = biological target: GDP-bound NRAS wild-type protein (Homo sapiens, UniProt P01111); assay: Binding to NRAS by surface plasmon resonance (SPR), KD and KD ratio to KRAS
# Procedure, shortened: (§1)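 Compound binding is evaluated by SPR single-cycle kinetics, with concentrations added intermittently from low to high for 75 s each. Target surfaces carry GDP-loaded biotinylated Avi-RAS at about 100–300 RU, regenerated after each cycle; temperature 30°C. A 1:1 binding model gives KD.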
# [3] = biological target: HRAS wild-type protein (Homo sapiens, UniProt P01112); assay: Binding to HRAS by surface plasmon resonance (SPR), KD and KD ratio to KRAS
# Procedure, shortened: as §1
# [4] = system: human lung cancer strain NCI-H441; type: cell-based
# Procedure, shortened: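 Proliferation was scored by […] measured after the reagent was added to cultures kept at 37°C in 5% carbon dioxide.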
# [5] = ratio of KD for GDP-bound NRAS wild-type protein to KD for KRAS
# [6] = ratio of KD for HRAS wild-type protein to KD for KRAS
# Chain of GDP-bound NRAS wild-type protein (P01111 whole entry): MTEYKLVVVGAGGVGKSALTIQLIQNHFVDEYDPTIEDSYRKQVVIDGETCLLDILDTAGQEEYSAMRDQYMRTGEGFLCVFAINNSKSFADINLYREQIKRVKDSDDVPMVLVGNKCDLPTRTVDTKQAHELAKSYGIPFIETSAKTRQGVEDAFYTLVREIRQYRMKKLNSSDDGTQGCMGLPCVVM
# Chain of GDP-bound KRAS wild-type protein (P01116 1-188 isoform P01116-2): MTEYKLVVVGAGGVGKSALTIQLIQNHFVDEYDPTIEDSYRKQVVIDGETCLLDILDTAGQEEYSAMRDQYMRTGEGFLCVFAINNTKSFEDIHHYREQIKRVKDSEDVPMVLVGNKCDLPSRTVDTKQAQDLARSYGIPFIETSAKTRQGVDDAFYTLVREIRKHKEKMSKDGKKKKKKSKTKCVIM
# Chain of HRAS wild-type protein (P01112 whole entry): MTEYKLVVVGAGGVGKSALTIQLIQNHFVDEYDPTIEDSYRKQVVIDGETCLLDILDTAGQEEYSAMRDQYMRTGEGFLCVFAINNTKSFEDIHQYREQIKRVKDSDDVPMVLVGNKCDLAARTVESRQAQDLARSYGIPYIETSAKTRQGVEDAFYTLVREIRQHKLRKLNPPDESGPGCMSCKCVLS
Structure (SMILES),IC50 [4] [nM],Kd ([1]; Single Cycle Kinetics) [nM],"NRAS /KRAS [2, 5]","HRAS /KRAS [3, 6]",also measured
CC[C@H](C)[C@@H]1NC(=O)[C@H](CC(C)C)N(C)C(=O)C[C@@H](C(=O)N2CCOCC2)N(C)C(=O)[C@H](C(C)C)N(C)C(=O)C2(CCCC2)NC(=O)[C@@H]2CCCN2C(=O)[C@H](CCc2ccc(C(F)(F)F)c(Cl)c2)NC(=O)CN(C)C(=O)[C@H](Cc2ccc(C)cc2)N(CC)C(=O)CN(C)C(=O)CN(C)C1=O [PP0044] ([NMeL]I[Sar][Sar][NEtPhe(4-Me)][Sar][hPhe(3-Cl-4-CF3)]P[Ac5c][NMeV][NMeD]-Morpholide; lactam N-11),142,,C (A compound having a KD ratio of 0.1 or more and less than 3 is denoted as C),C (A compound having a KD ratio of 0.1 or more and less than 3 is denoted as C),Kd ([1]; 1:1 binding model): 3.6 nM
CC[C@H](C)[C@@H]1NC(=O)[C@H](CC(C)C)N(C)C(=O)C[C@@H](C(=O)N2CCOCC2)N(C)C(=O)[C@H](C2CCCC2)N(C)C(=O)C2(CCC2)NC(=O)[C@@H]2C[C@@H](O)CN2C(=O)[C@H](CCc2cc(F)c(C(F)(F)F)c(F)c2)NC(=O)CN(C)C(=O)[C@H](Cc2ccc(C(F)(F)F)cc2)N2CCCCC[C@@H](C2=O)N(C)C(=O)CN(C)C1=O [PP0871],438,0.4,,,
CC[C@H](C)[C@@H]1NC(=O)[C@H](CC(C)C)N(C)C(=O)C[C@@H](C(=O)N2CCOCC2)N(C)C(=O)[C@H](C2CCCC2)N(C)C(=O)C2(CCC2)NC(=O)[C@@H]2[C@@H](O)CCN2C(=O)[C@H](CCc2cc(F)c(C(F)(F)F)c(F)c2)NC(=O)CN(C)C(=O)[C@H](Cc2ccc(C(F)(F)F)cc2)N2CCCCC[C@@H](C2=O)N(C)C(=O)CN(C)C1=O [PP0872],2600,1.7,,,
C=CCCCC[C@H]1C(=O)N[C@@H]([C@@H](C)CC)C(=O)N(C)CC(=O)N(C)[C@H]2CCCCCN(C2=O)[C@@H](Cc2ccc(C(F)(F)F)cc2)C(=O)N(C)CC(=O)N[C@@H](CCc2cc(F)c(C(F)(F)F)c(F)c2)C(=O)N2C[C@H](OCC)C[C@H]2C(=O)N[C@](C)(CC=C)C(=O)N(C)[C@@H](C2CCCC2)C(=O)N(C)[C@H](C(=O)N2CCOCC2)CC(=O)N1C [PP0881],374,5.5,,,
CC[C@H](C)[C@@H]1NC(=O)[C@H](CC(C)C)N(C)C(=O)C[C@@H](C(=O)N(C)C)N(CCC2CCCC2)C(=O)[C@H](C2CCCC2)N(C)C(=O)C2(CCCC2)NC(=O)[C@@H]2CCCN2C(=O)[C@H](CCc2ccc(C(F)(F)F)c(Cl)c2)NC(=O)CN(C)C(=O)[C@H](Cc2ccc(F)cc2)N2CCCCC[C@@H](C2=O)N(C)C(=O)CN(C)C1=O [PP0975],1570,8.9,,,
CCO[C@@H]1C[C@H]2C(=O)NC3(CCC3)C(=O)N(C)[C@@H](C(CC)CC)C(=O)N(C)[C@H](C(=O)N(C)C)CC(=O)N(C)[C@@H](C)C(=O)N[C@@H]([C@@H](C)CC)C(=O)N(C)CC(=O)N(C)[C@H]3C/C=C\CCN(C3=O)[C@@H](Cc3ccc(C(F)(F)F)cc3)C(=O)N(C)CC(=O)N[C@@H](CCc3ccc(C(F)(F)F)c(OC)c3)C(=O)N2C1 [PP1206],,,,,"Kd ([1]; Single Cycle Kinetics, 1:1 binding model): 0.17 nM; NRAS /KRAS ([2]; ratio of KD with respect to GDP-bound NRAS wild-type protein to KD with respect to KRAS): AA (a compound having 20 or more is denoted as AA); HRAS /KRAS ([3]; ratio of KD with respect to HRAS wild-type protein to KD with respect to KRAS): A (a compound having 10 or more and less than 20 is denoted as A)"
CCC[C@H]1C(=O)N[C@@H]([C@@H](C)CC)C(=O)N(C)CC(=O)N(C)[C@H]2C/C=C\CCN(C2=O)[C@@H](Cc2ccc(C)cc2)C(=O)N(C)CC(=O)N[C@@H](CCc2cc(F)c(C(F)(F)F)c(F)c2)C(=O)N2C[C@H](OCC)C[C@H]2C(=O)N(C)C2(CCC2)C(=O)N(C)[C@@H](C2CCCC2)C(=O)N(C)[C@H](C(=O)N2CCCCC2)CC(=O)N1C [PP3119],3.5,,A (a compound having 10 or more and less than 20 is denoted as A),A (a compound having 10 or more and less than 20 is denoted as A),

# Continued, in another order:
IC50 [4] [nM],Kd ([1]; Single Cycle Kinetics) [nM],Structure (SMILES),"NRAS /KRAS [2, 5]","HRAS /KRAS [3, 6]",also measured
33.9,,CCC[C@H]1C(=O)N[C@H]([C@@H](C)CC)C(=O)N(C)CC(=O)N(C)[C@H]2C/C=C\CCN(C2=O)[C@@H](Cc2ccc(C)cc2)C(=O)N(C)CC(=O)N[C@@H](CCc2cc(F)c(C(F)F)c(F)c2)C(=O)N2C[C@H](OCC)C[C@H]2C(=O)NC2(CC(C)(C)C2)C(=O)N(C)[C@@H](C(CC)CC)C(=O)N(C)[C@H](C(=O)N(C)C)CC(=O)N1C (stereo in doubt) [PP2783],A (a compound having 10 or more and less than 20 is denoted as A),A (a compound having 10 or more and less than 20 is denoted as A),Kd ([1]; 1:1 binding model): 1.7 nM
3.5,,CCCCN1C(=O)[C@@H]2CCN2C(=O)[C@H](C)N(C)C(=O)[C@H]([C@@H](C)CC)NC(=O)[C@H](CC(C)C)N(C)C(=O)C[C@@H](C(=O)N2CCOCC2)N(C)C(=O)[C@H](C2CCCC2)N(C)C(=O)C2(CCCC2)NC(=O)[C@@H]2CCCN2C(=O)[C@H](CCc2ccc(C(F)(F)F)c(Cl)c2)NC(=O)CN(C)C(=O)[C@@H]1Cc1ccc(C)cc1 [PP0055] ([NMeL]I[NMeA][Aze][X1][Sar][hPhe(3-Cl-4-CF3)]P[Ac5c][NMeGly(cPent)][NMeD]-Morpholide; lactam N-11),,,Kd ([1]; 1:1 binding model): 0.27 nM
102,1.1,CC[C@H](C)[C@@H]1NC(=O)[C@H](CC(C)C)N(C)C(=O)C[C@@H](C(=O)N2CCOCC2)N(C)C(=O)[C@H](C2CCCC2)N(C)C(=O)C2(CCC2)NC(=O)[C@@H]2[C@@H](OCCC(F)(F)F)CCN2C(=O)[C@H](CCc2cc(F)c(C(F)(F)F)c(F)c2)NC(=O)CN(C)C(=O)[C@H](Cc2ccc(C(F)(F)F)cc2)N2CCCCC[C@@H](C2=O)N(C)C(=O)CN(C)C1=O [PP1008],,,
1.9,,CCC[C@H]1C(=O)N[C@@H]([C@@H](C)CC)C(=O)N(C)CC(=O)N(C)[C@H]2C/C=C\CCN(C2=O)[C@@H](Cc2ccc(C(F)(F)F)cc2)C(=O)N(C)CC(=O)N[C@@H](CCc2cc(F)c(C(F)(F)F)c(F)c2)C(=O)N2C[C@H](OCC)C[C@H]2C(=O)N(C)C2(CCC2)C(=O)N(C)[C@@H](C2CCCC2)C(=O)N(C)[C@H](C(=O)N2CCCC2)CC(=O)N1C [PP3120],AA (a compound having 20 or more is denoted as AA),A (a compound having 10 or more and less than 20 is denoted as A),
1.5,,CCC[C@H]1C(=O)N[C@@H]([C@@H](C)CC)C(=O)N(C)CC(=O)N(C)[C@H]2C/C=C\CCN(C2=O)[C@@H](Cc2ccc(C)cc2)C(=O)N(C)CC(=O)N[C@@H](CCc2cc(F)c(C(F)(F)F)c(F)c2)C(=O)N2C[C@H](OCC)C[C@H]2C(=O)N(C)C2(CCC2)C(=O)N(C)[C@@H](C2CCCC2)C(=O)N(C)[C@H](C(=O)N2CCCC2)CC(=O)N1C [PP3121],A (a compound having 10 or more and less than 20 is denoted as A),A (a compound having 10 or more and less than 20 is denoted as A),
30.4,,CCO[C@@H]1C[C@H]2C(=O)NC3(CC(C)(C)C3)C(=O)N(C)[C@@H](C3CCCC3)C(=O)N(C)[C@H](C(=O)N(C)CC)CC(=O)N(C)[C@@H]([C@@H](C)OC)C(=O)N[C@@H]([C@@H](C)CC)C(=O)N(C3CC3)CC(=O)N(C)[C@H]3C/C=C\CCN(C3=O)[C@@H](Cc3ccc(C)cc3)C(=O)N(C)CC(=O)N[C@@H](CCc3cc(F)c(C(F)(F)F)c(F)c3)C(=O)N2C1 [PP3184],A (a compound having 10 or more and less than 20 is denoted as A),A (a compound having 10 or more and less than 20 is denoted as A),
128,,CCO[C@@H]1C[C@H]2C(=O)NC3(CC(C)(C)C3)C(=O)N(C)[C@@H](C3CCCC3)C(=O)N(C)[C@H](C(=O)N(C)C)CC(=O)N(C)[C@@H]([C@H](C)OC)C(=O)N[C@@H]([C@@H](C)CC)C(=O)N3CCC[C@H]3C(=O)N(C)[C@H]3C/C=C\CCN(C3=O)[C@@H](Cc3ccc(C)cc3)C(=O)N(C)CC(=O)N[C@@H](CCc3ccc(C(F)(F)F)c(Cl)c3)C(=O)N2C1 [PP3201],A (a compound having 10 or more and less than 20 is denoted as A),A (a compound having 10 or more and less than 20 is denoted as A),
